# Measurements published in patent US20060008491A1, “Eremophilone and eremophilone derivatives for pest control” (priority 2002, published 2006).
# Test system: Coptotermes acinaciformis
# Assay type: in vivo
# Conditions: HPLC fractions of steam distilled oil
# Experimental: A number of samples were assessed for termiticidal activity. The steam distilled oil product was separated into thirty fractions using reverse phase preparative HPLC, methanol:water (80:20). Fractions were re-analysed by GC-MS and recombined to provide eight fractions. Three fractions contained pure components, the other fractions contained mixtures of minor components of the oil. Six fractions together with the whole oil distillate, and the methanol and hexane extracts were tested on the workers of the termites Nasutitermes walkeri and Coptotermes acinaciformis as follows.
# Twenty uniform termite workers were transferred to 90 mm diam. petri dishes lined with the same diameter moistened filter paper (Whatman No 2). […]
# A 5 ml aliquot was applied to each petri dish with a Potter precision spray tower as described by Herron et al (995). The average weight of the solution sprayed on each dish was calculated to be 3.95 mg/cm^2. […] Mortality was normally recorded 24 h after treatment. […] Probit analysis was carried out for dose-mortality data and heterogeneity of regressions was determined by the Pearson chi-squared characteristic.
smiles,measurement,value
"C=C(C)[C@@H]1CC(=O)C2=CCC[C@H](C)[C@@]2(C)C1 [EM-1, Eremophilone]",termiticidal activity,significant termiticidal activity
